{"source": "paper PMC11187827", "about": "(Journal of natural products, 2020)", "key": {"sigma-2 receptor (σ 2)": {"target": "T1, sigma-2 receptor (σ 2) (Rattus norvegicus, UniProt Q5U3Y7)", "T1 sequence (Q5U3Y7 1-176)": "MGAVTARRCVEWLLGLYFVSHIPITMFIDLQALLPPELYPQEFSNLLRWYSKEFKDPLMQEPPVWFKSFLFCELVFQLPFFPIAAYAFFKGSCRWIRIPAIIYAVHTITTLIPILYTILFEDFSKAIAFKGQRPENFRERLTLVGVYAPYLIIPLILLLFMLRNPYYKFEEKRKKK", "experiment": "receptor binding assay"}, "[1]": {"target": "DAT (dopamine transporter) (Homo sapiens, UniProt Q01959)", "sequence (Q01959 whole entry, species assumed)": "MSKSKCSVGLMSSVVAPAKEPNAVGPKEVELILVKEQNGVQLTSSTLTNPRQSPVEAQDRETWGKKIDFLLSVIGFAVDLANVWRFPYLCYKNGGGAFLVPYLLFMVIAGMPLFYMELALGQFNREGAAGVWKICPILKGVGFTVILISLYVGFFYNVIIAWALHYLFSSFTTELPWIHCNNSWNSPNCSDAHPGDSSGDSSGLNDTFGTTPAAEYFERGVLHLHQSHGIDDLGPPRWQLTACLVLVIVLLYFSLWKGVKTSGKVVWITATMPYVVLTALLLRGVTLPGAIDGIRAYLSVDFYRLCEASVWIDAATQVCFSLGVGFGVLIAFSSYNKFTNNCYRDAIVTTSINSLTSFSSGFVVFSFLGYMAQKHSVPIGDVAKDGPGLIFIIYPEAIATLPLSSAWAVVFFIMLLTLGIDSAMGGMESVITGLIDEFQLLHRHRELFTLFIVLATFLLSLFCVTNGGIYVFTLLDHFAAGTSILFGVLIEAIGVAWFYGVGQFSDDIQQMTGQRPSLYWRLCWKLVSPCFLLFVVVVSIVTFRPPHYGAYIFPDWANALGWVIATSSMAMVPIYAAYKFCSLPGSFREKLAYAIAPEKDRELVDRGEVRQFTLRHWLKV", "experiment": "receptor binding assay"}, "male Swiss Webster mice [2]": {"tested_on": "male Swiss Webster mice", "experiment": "locomotor activity test", "assay_type": "in vivo, mouse", "details": "20 mg/kg, i.p."}, "male Swiss Webster mice [3]": {"tested_on": "male Swiss Webster mice", "experiment": "forced-swim test", "assay_type": "in vivo, mouse", "details": "20 mg/kg, i.p., relative to desipramine (20 mg/kg)"}, "[4]": {"target": "SERT (serotonin transporter) (Homo sapiens, UniProt P31645)", "sequence (P31645 whole entry, species assumed)": "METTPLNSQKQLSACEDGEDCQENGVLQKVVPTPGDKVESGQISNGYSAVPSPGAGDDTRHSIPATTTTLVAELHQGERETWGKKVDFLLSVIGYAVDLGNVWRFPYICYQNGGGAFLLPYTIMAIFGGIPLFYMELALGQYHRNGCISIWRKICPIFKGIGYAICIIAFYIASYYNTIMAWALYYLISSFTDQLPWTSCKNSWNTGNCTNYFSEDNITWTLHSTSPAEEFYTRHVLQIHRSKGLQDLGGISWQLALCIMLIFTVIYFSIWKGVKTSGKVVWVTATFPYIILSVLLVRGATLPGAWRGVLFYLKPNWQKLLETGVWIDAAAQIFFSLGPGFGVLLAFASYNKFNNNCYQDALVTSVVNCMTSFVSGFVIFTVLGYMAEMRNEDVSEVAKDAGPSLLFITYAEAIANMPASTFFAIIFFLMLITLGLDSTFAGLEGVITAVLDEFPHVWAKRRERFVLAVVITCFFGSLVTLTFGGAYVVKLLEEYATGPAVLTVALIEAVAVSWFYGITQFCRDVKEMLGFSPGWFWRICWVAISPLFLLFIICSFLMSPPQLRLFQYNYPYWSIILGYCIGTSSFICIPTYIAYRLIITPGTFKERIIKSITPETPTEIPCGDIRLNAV", "experiment": "receptor binding assay"}, "[5]": {"target": "NET (norepinephrine transporter) (Homo sapiens, UniProt P23975)", "sequence (P23975 whole entry)": "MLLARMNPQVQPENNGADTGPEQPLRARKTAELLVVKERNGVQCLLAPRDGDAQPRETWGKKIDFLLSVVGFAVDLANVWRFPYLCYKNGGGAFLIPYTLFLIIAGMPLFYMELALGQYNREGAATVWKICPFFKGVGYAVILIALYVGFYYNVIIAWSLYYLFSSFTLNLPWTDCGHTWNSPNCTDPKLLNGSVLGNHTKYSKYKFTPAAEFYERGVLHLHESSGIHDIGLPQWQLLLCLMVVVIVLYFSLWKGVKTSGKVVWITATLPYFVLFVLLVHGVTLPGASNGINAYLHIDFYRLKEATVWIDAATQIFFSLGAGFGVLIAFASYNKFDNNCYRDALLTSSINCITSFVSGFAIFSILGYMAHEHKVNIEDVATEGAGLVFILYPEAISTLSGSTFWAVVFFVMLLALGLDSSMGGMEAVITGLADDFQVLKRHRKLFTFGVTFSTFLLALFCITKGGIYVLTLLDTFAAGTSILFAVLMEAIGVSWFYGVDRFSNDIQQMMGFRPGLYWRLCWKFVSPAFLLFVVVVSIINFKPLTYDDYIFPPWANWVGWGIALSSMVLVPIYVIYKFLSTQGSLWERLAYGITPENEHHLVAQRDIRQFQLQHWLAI", "experiment": "receptor binding assay"}}}
{"smiles": "Cc1nccc2c1C(C)(C)Nc1cc(Br)ccc1-2", "note": "[Veranamine]", "values": [{"measurement": "binding to the sigma-2 receptor", "setting": "sigma-2 receptor (σ 2)", "value": "did not bind"}, {"measurement": "affinity for dopamine transporter", "setting": "[1]", "value": "no affinity"}, {"measurement": "locomotor activity (nonspecific stimulant action)", "setting": "male Swiss Webster mice [2]", "value": "did not demonstrate nonspecific stimulant action"}, {"measurement": "immobility time in mouse forced-swim test", "setting": "male Swiss Webster mice [3]", "value": "decreasing the immobility time significantly"}, {"measurement": "affinity for serotonin transporter", "setting": "[4]", "value": "no affinity"}, {"measurement": "affinity for norepinephrine transporter", "setting": "[5]", "value": "no affinity"}]}
